Experimental findings from US20240408216A1, “PROTEIN INHIBITOR OR DEGRADING AGENT, PHARMACEUTICAL COMPOSITION CONTAINING SAME AND PHARMACEUTICAL USE” (JING MEDICINE TECHNOLOGY (SHANGHAI) LTD., priority 2021, published 2024) are described below.

The first assay concerns BaF3 (EGFR L858R/T790M/C797S). Briefly: Cell proliferation IC50 assay (Cell Titer GLO), BaF3 LTC cells. Conditions: Mus musculus, Ba/F3 EGFR, Table 6, 72 h. The class given is cell-based. As for the experimental part:
(§1) IC50 of compounds in the present invention was determined by Cell Titer GLO reagent from Promega. The procedures are as follows:
(§2) Tumor cells were cultured in specified medium in an incubator at 37° C. and 5% CO2. The cells were passaged periodically. Cells at the logarithmic growth phase were collected for plating at a density of 2000-4000 cells/well. The next day, the compounds of the present invention were serially diluted and added to the cells, with DMSO being the negative control and the culture media without cells being the blank control. The plate was incubated in the incubator for 72 h. The cell viability assay was performed by adding the detection reagents to the cell culture media according to Cell Titer GLO reagent instructions and detecting luminescent signals on an EnVision microplate reader (PerkinElmer).
(§3) Inhibition of cell growth by the compounds of the present invention was plotted by Prism Graphpad software for statistically calculating the IC50 of the compound of the present invention.
In general terms: Cellular ATP, detected with luciferase, serves as a proxy for viable cell number.
Consider `COc1cc(N2CCC3(CCN(CCCC#Cc4cccc5c4CN(C4CCC(=O)NC4=O)C5=O)CC3)CC2)c(C2CC2)cc1Nc1ncc(Cl)c(Nc2ccccc2P(C)(C)=O)n1` (stereo not shown) [Example E62], for which 96.1 nM corresponded to half-maximal inhibition (IC50).
On the same count and under the same terms, then `CCc1cc(Nc2ncc(Cl)c(Nc3ccccc3P(C)(C)=O)n2)c(OC)cc1N1CCC2(CCN(CCCCOc3cccc4c3CN(C3CCC(=O)NC3=O)C4=O)CC2)CC1` (stereo not shown) [Example E47], with 36.9 nM; and `CCc1cc(Nc2ncc(Cl)c(Nc3ccccc3P(C)(C)=O)n2)c(OC)cc1N1CCC(N2CCN(C(=O)CCCOc3cccc4c3CN(C3CCC(=O)NC3=O)C4=O)CC2)CC1` (stereo not shown) [Example E88], with 59.9 nM; and `CCc1cc(Nc2ncc(-c3nc(C)no3)c(Nc3ccccc3P(C)(C)=O)n2)c(OC)cc1N1CCC(N2CCN(CCOc3cccc4c3CN(C3CCC(=O)NC3=O)C4=O)CC2)CC1` (stereo not shown) [Example E149], with 3480 nM.
The same measure, in the same setting: the value for `CCCc1cc(Nc2ncc(Cl)c(Nc3ccccc3P(C)(C)=O)n2)c(OC)cc1N1CCC(N2CCN(CCC#Cc3cccc4c3CN(C3CCC(=O)NC3=O)C4=O)CC2)CC1` (stereo not shown) [Example E44] was 17.9 nM; that for `CCc1cc(Nc2ncc(Cl)c(Nc3ccccc3P(C)(C)=O)n2)c(OC)cc1N1CCC(N2CCN(CCOc3cccc4c3CN(C3CCC(=O)NC3=O)C4=O)C3(CC3)C2)CC1` (stereo not shown) [Example E144] was 105 nM.
Still for that read-out and setting: then `CCc1cc(N2CCC(N3CCN(CCCCOc4cccc5c4CN(C4CCC(=O)NC4=O)C5=O)CC3)CC2)c(CC)cc1Nc1nc(Nc2ccccc2P(C)(C)=O)c2cc[nH]c2n1` (stereo not shown) [Example E153], with 65.9 nM.

Another assay deals with T1, BaF3 (EGFR Del19/C797S) (Homo sapiens, UniProt P00533, C797S, cells depend on it, form not given).
T1 construct: BaF3 (EGFR Del19/C797S)|DC|RPMI1640 + 10% FBS
T1 sequence (P00533 with tags, fused parts or gaps DEL746-750/C797S, form open): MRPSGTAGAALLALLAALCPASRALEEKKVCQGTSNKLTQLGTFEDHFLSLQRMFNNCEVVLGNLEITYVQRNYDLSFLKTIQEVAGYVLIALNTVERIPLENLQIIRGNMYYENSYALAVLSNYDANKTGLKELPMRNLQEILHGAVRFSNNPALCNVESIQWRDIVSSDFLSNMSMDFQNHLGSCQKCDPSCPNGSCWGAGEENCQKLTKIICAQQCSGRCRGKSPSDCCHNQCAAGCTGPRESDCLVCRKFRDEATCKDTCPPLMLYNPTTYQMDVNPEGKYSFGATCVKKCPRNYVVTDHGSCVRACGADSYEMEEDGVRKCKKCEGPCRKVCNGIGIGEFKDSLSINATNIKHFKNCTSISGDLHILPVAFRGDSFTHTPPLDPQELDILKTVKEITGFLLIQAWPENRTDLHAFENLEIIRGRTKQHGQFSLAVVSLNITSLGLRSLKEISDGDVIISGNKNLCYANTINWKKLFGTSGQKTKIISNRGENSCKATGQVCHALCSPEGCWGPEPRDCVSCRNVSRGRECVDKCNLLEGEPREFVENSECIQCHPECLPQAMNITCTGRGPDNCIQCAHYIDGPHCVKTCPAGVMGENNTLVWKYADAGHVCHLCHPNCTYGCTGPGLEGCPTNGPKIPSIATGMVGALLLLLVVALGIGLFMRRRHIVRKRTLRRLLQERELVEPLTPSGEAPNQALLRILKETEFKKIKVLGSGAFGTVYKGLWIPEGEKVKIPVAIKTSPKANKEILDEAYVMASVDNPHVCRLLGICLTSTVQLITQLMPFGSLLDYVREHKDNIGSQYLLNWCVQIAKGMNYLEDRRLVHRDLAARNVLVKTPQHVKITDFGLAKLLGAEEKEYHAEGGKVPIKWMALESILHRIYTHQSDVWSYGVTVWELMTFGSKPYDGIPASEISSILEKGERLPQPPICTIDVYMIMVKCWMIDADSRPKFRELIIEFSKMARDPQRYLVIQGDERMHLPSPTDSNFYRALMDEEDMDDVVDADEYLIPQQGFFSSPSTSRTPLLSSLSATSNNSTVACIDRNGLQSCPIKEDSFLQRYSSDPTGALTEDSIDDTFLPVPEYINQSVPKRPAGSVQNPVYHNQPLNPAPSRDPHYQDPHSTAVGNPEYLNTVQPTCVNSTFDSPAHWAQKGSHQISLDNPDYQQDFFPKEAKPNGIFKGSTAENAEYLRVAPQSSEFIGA
Briefly: Cell proliferation IC50 assay (Cell Titer GLO), BaF3 DC cells. Conditions: Table 6, 72 h. The class given is cell-based, mouse. As for the experimental part:
as §1, §2, §3
Turning to `COc1cc(N2CCC3(CCN(CCCC#Cc4cccc5c4CN(C4CCC(=O)NC4=O)C5=O)CC3)CC2)c(C2CC2)cc1Nc1ncc(Cl)c(Nc2ccccc2P(C)(C)=O)n1` (stereo not shown) [Example E62], the IC50 (as a rule, the midpoint of a concentration-inhibition curve) stood at 51.1 nM.
With `CCc1cc(Nc2ncc(Cl)c(Nc3ccccc3P(C)(C)=O)n2)c(OC)cc1N1CCC2(CCN(CCCCOc3cccc4c3CN(C3CCC(=O)NC3=O)C4=O)CC2)CC1` (stereo not shown) [Example E47], the midpoint of inhibition, the IC50, lay at 9.5 nM.
The same measure, in the same setting: then `CCc1cc(Nc2ncc(Cl)c(Nc3ccccc3P(C)(C)=O)n2)c(OC)cc1N1CCC(N2CCN(C(=O)CCCOc3cccc4c3CN(C3CCC(=O)NC3=O)C4=O)CC2)CC1` (stereo not shown) [Example E88], with 9.1 nM; and `CCc1cc(Nc2ncc(-c3nc(C)no3)c(Nc3ccccc3P(C)(C)=O)n2)c(OC)cc1N1CCC(N2CCN(CCOc3cccc4c3CN(C3CCC(=O)NC3=O)C4=O)CC2)CC1` (stereo not shown) [Example E149], with 37.2 nM.
Still for that read-out and setting: the value for `CCCc1cc(Nc2ncc(Cl)c(Nc3ccccc3P(C)(C)=O)n2)c(OC)cc1N1CCC(N2CCN(CCC#Cc3cccc4c3CN(C3CCC(=O)NC3=O)C4=O)CC2)CC1` (stereo not shown) [Example E44] was 6.6 nM.
The molecule `CCc1cc(Nc2ncc(Cl)c(Nc3ccccc3P(C)(C)=O)n2)c(OC)cc1N1CCC(N2CCN(CCOc3cccc4c3CN(C3CCC(=O)NC3=O)C4=O)C3(CC3)C2)CC1` (stereo not shown) [Example E144] had a 50% inhibitory concentration (IC50) of 35.2 nM.
The same measure, in the same setting: then `CCc1cc(N2CCC(N3CCN(CCCCOc4cccc5c4CN(C4CCC(=O)NC4=O)C5=O)CC3)CC2)c(CC)cc1Nc1nc(Nc2ccccc2P(C)(C)=O)c2cc[nH]c2n1` (stereo not shown) [Example E153], with 26.3 nM.

In a further assay the test system is A431. Briefly: Cell proliferation IC50 assay (Cell Titer GLO), A431 cells. The class given is cell-based. To be noted: Homo sapiens, A-431; Table 6; A431, 72 h; read-out: A431 IC50. As for the experimental part: as §1, §2, §3
In the case of `COc1cc(N2CCC3(CCN(CCCC#Cc4cccc5c4CN(C4CCC(=O)NC4=O)C5=O)CC3)CC2)c(C2CC2)cc1Nc1ncc(Cl)c(Nc2ccccc2P(C)(C)=O)n1` (stereo not shown) [Example E62], the IC50 was over 4000 nM.
Regarding `CCc1cc(Nc2ncc(Cl)c(Nc3ccccc3P(C)(C)=O)n2)c(OC)cc1N1CCC2(CCN(CCCCOc3cccc4c3CN(C3CCC(=O)NC3=O)C4=O)CC2)CC1` (stereo not shown) [Example E47], the IC50 is over 4000 nM.
With `CCc1cc(Nc2ncc(Cl)c(Nc3ccccc3P(C)(C)=O)n2)c(OC)cc1N1CCC(N2CCN(C(=O)CCCOc3cccc4c3CN(C3CCC(=O)NC3=O)C4=O)CC2)CC1` (stereo not shown) [Example E88], the IC50 turned out to be 1610 nM.
The same measure, in the same setting: the value for `CCc1cc(Nc2ncc(-c3nc(C)no3)c(Nc3ccccc3P(C)(C)=O)n2)c(OC)cc1N1CCC(N2CCN(CCOc3cccc4c3CN(C3CCC(=O)NC3=O)C4=O)CC2)CC1` (stereo not shown) [Example E149] was over 4000 nM; that for `CCCc1cc(Nc2ncc(Cl)c(Nc3ccccc3P(C)(C)=O)n2)c(OC)cc1N1CCC(N2CCN(CCC#Cc3cccc4c3CN(C3CCC(=O)NC3=O)C4=O)CC2)CC1` (stereo not shown) [Example E44] was 3490 nM.
For the molecule `CCc1cc(Nc2ncc(Cl)c(Nc3ccccc3P(C)(C)=O)n2)c(OC)cc1N1CCC(N2CCN(CCOc3cccc4c3CN(C3CCC(=O)NC3=O)C4=O)C3(CC3)C2)CC1` (stereo not shown) [Example E144], the IC50 is 1370 nM.
Take `CCc1cc(N2CCC(N3CCN(CCCCOc4cccc5c4CN(C4CCC(=O)NC4=O)C5=O)CC3)CC2)c(CC)cc1Nc1nc(Nc2ccccc2P(C)(C)=O)c2cc[nH]c2n1` (stereo not shown) [Example E153]: the 50% inhibitory concentration (IC50) was over 4000 nM.

In another assay the test system is BaF3 (EGFR WT). Briefly: Cell proliferation IC50 assay (Cell Titer GLO), BaF3 WT cells. The class given is cell-based. To be noted: Mus musculus, Ba/F3 EGFR, Table 6, 10 ng/ml EGF, 72 h. As for the experimental part:
as §1, §2, §3
As for `COc1cc(N2CCC3(CCN(CCCC#Cc4cccc5c4CN(C4CCC(=O)NC4=O)C5=O)CC3)CC2)c(C2CC2)cc1Nc1ncc(Cl)c(Nc2ccccc2P(C)(C)=O)n1` (stereo not shown) [Example E62], the concentration for half-maximal inhibition (IC50) was over 4000 nM.
With `CCc1cc(Nc2ncc(Cl)c(Nc3ccccc3P(C)(C)=O)n2)c(OC)cc1N1CCC2(CCN(CCCCOc3cccc4c3CN(C3CCC(=O)NC3=O)C4=O)CC2)CC1` (stereo not shown) [Example E47], the 50% inhibitory concentration (IC50) turned out to be 461 nM.
The same measure, in the same setting: the value for `CCc1cc(Nc2ncc(Cl)c(Nc3ccccc3P(C)(C)=O)n2)c(OC)cc1N1CCC(N2CCN(C(=O)CCCOc3cccc4c3CN(C3CCC(=O)NC3=O)C4=O)CC2)CC1` (stereo not shown) [Example E88] was 2700 nM; that for `CCc1cc(Nc2ncc(-c3nc(C)no3)c(Nc3ccccc3P(C)(C)=O)n2)c(OC)cc1N1CCC(N2CCN(CCOc3cccc4c3CN(C3CCC(=O)NC3=O)C4=O)CC2)CC1` (stereo not shown) [Example E149] was 1290 nM; that for `CCCc1cc(Nc2ncc(Cl)c(Nc3ccccc3P(C)(C)=O)n2)c(OC)cc1N1CCC(N2CCN(CCC#Cc3cccc4c3CN(C3CCC(=O)NC3=O)C4=O)CC2)CC1` (stereo not shown) [Example E44] was over 4000 nM.
The molecule `CCc1cc(Nc2ncc(Cl)c(Nc3ccccc3P(C)(C)=O)n2)c(OC)cc1N1CCC(N2CCN(CCOc3cccc4c3CN(C3CCC(=O)NC3=O)C4=O)C3(CC3)C2)CC1` (stereo not shown) [Example E144] yielded an IC50 of 1200 nM.
On the same count and under the same terms, then `CCc1cc(N2CCC(N3CCN(CCCCOc4cccc5c4CN(C4CCC(=O)NC4=O)C5=O)CC3)CC2)c(CC)cc1Nc1nc(Nc2ccccc2P(C)(C)=O)c2cc[nH]c2n1` (stereo not shown) [Example E153], with over 4000 nM.
